For the test, the target named is T1, EED (1-441)-His protein (Homo sapiens, UniProt O75530).
T1 construct: 20 nM EED (1-441)-His protein
Put plainly: EED-H3K27Me3 peptide competition binding assay by AlphaScreen. The note with it: read-out: Alpha screen. As to the method: EED-H3K27Me3 Peptide Competition Binding Assay by AlphaScreen (α-Screen):
The compounds at each concentration (2.5 μl of each) were transferred into a 384-well Perkin Elmer OptiPlate-384 white plates. 5 μl of solutions containing 20 nM EED (1-441)-His protein in the buffer (25 mM HEPES, pH 8, 0.02% Tween-20, 0.5% BSA) were added to the wells and then incubated with compound for 15 min. 2.5 μl of solutions containing 20 nM biotin-H3K27Me3 (19-33) peptide in the buffer (25 mM HEPES, pH 8, 0.02% Tween-20, 0.5% BSA) were added to the wells and then incubated with compound for 30 min. AlphaScreen detection beads mix was prepared immediately before use by mixing nickel chelate acceptor beads and streptavidin donor beads in a 1:1 ratio (Perkin Elmer, Product No. 6760619C/M/R) into the buffer described above. Then 10 μl of the detection beads mix was added to the plate and incubated in the dark at RT for 1 h. The final concentration of donor and acceptor beads was 10 μg/ml for each. Plates were read on CLARIOStar plate reader (BMG Labtech) using the AlphaScreen setting adapted for optimal signal detection with a 615 nm filter, after sample excitation at 680 nm. The emission signal at 615 nm was used to quantify compound inhibition. AlphaScreen signals were normalized based on the reading coming from the positive (maximum signal control) and negative controls (minimum signal control) to give percentage of activities left. The data were then fit to a dose response equation to get the IC50 values.

SMILES strings stand for the structures. Like-named read-outs stand apart in the source and are kept apart here.

T1 sequence (O75530 whole entry): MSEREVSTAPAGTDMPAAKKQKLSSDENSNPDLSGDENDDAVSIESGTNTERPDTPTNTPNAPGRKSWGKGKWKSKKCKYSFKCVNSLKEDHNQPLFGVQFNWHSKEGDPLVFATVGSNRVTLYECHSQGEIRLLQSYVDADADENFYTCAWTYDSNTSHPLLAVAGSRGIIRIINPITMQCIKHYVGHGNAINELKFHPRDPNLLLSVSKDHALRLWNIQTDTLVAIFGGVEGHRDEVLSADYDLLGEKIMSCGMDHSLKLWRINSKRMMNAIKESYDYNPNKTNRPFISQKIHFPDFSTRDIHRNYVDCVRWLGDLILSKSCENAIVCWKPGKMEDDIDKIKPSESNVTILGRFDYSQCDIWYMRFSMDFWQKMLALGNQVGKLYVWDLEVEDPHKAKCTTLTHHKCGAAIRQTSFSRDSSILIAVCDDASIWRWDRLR

Regarding `O=C1c2ncn3c(NCc4c(F)ccc5c4CCO5)ncc(c23)-c2ccc(CC3COCCO3)nc2CN1CC(F)(F)F` (centres unmarked) [E 49, 7-((1,4-dioxan-2-yl)methyl)-12-(((5-fluoro-2,3-dihydrobenzofuran-4-yl)methyl)amino)-4-(2,2,2-trifluoroethyl)-4,5-dihydro-3H-2,4,6,11,12a-pentaazabenzo[4,5]cycloocta[1,2,3-cd] inden-3-one], where the note is “IC50 class, Table 4B”, the IC50 was below 10 nM.

As to `O=C1OCc2ncccc2-c2cnc(NCc3c(F)ccc4occc34)n3cnc1c23` [Compound 10, 12-(((5-fluorobenzofuran-4-yl)methyl)amino)-3H, 5H-4-oxa-2,6,11,12a-tetraazabenzo[4,5]cycloocta [1,2,3-cd]inden-3-one], the IC50 (Table 4A) turned out to be 1.11 nM.

Turning to `Cc1ccc2c(n1)CN(CC(F)F)C(=O)c1ncn3c(NCc4c(F)ccc5c4CCO5)ncc-2c13` [E 6, 4-(2,2-difluoroethyl)-12-(((5-fluoro-2,3-dihydro-benzofuran-4-yl)methyl)amino)-7-methyl-4,5-dihydro-3H-2,4,6,11,12a-pentaazabenzo[4,5] cycloocta[1,2,3-cd]inden-3-one], the IC50 (IC50 class, Table 4B) was below 10 nM.

In the case of `O=C1OCc2ncc(C(F)(F)F)cc2-c2cnc(NCc3c(F)ccc4c3CCO4)n3cnc1c23` [Compound 30, 12-(((5-fluoro-2,3-dihydrobenzofuran-4-yl)methyl)amino)-8-(trifluoromethyl)-3H,5H-4-oxa-2,6,11, 12a-tetraazabenzo[4,5]cycloocta[1,2,3-cd]inden-3-one], the IC50 (Table 4A) came out at 2.03 nM.

As for `O=C1Nc2ccccc2-c2cnc(NCc3c(F)ccc4c3CCO4)n3cnc1c23` [Compound 3, 11-(((5-fluoro-2,3-dihydrobenzofuran-4-yl)methyl)amino)-2,4,10,11a-tetraazadibenzo[cd,f]azulen-3(4H)-one], the IC50 (Table 4A) was 6.88 nM.

`CN1Cc2cc(C(F)(F)F)ncc2-c2cnc(NCc3c(F)ccc4c3CCO4)n3cnc(c23)C1=O` [Compound 34, 12-(((5-fluoro-2,3-dihydrobenzofuran-4-yl)methyl)amino)-4-methyl-7-(trifluoromethyl)-4,5-dihydro-3H-2,4,8,11,12a-pentaazabenzo[4,5]cycloocta [1,2,3-cd]inden-3-one]: for the setting “Table 4A”, the IC50 is 0.67 nM.

With `CN1Cc2nc(C(F)(F)F)ccc2-c2cnc(NCc3c(F)ccc4c3CCO4)n3cnc(c23)C1=O` [Compound 33, 12-(((5-fluoro-2,3-dihydrobenzofuran-4-yl)methyl)amino)-4-methyl-7-(trifluoromethyl)-4,5-dihydro-3H-2,4,6,11,12a-pentaazabenzo[4,5]cycloocta [1,2,3-cd]inden-3-one], the IC50 (Table 4A) is 1.06 nM.

As for `Cc1cnc2n1Cc1ncccc1-c1cnc(NCc3c(F)ccc4c3CCO4)n3cnc-2c13` [E 17, N-((5-fluoro-2,3-dihydrobenzofuran-4-yl)methyl)-5-methyl-6H-2,3,5a,7,12,13a-hexaazabenzo[4,5] cyclopenta[7,8]cycloocta[1,2,3-cd]inden-13-amine], the IC50 (IC50 class, Table 4B) was below 10 nM.

On to `CC(C)(C)c1ccc2c(n1)CN(CC(F)(F)F)C(=O)c1ncn3c(NCc4c(F)ccc5c4CCO5)ncc-2c13` [E 50, 7-(tert-butyl)-12-(((5-fluoro-2,3-dihydrobenzofuran-4-yl)methyl)amino)-4-(2,2,2-trifluoroethyl)-4,5-dihydro-3H-2,4,6,11,12a-pentaazabenzo[4,5] cycloocta[1,2,3-cd]inden-3-one], for which the IC50 (IC50 class, Table 4B) was below 10 nM.

Consider `O=C1c2ncn3c(NCc4c(F)ccc5c4CCO5)ncc(c23)-c2cnc(C(F)(F)F)cc2CN1CC1COCCO1` (centres unmarked) [Compound 37, 4-((1,4-dioxan-2-yl)methyl)-12-(((5-fluoro-2,3-dihydrobenzofuran-4-yl)methyl)amino)-7-(trifluoro-methyl)-4,5-dihydro-3H-2,4,8,11,12a-pentaazabenzo [4,5]cycloocta[1,2,3-cd]inden-3-one], for which the IC50 (Table 4A) came to 0.94 nM.

For `CCc1ccc2c(n1)CN(CC(F)(F)F)C(=O)c1ncn3c(NCc4c(F)ccc5c4CCO5)ncc-2c13` [E 12, 7-ethyl-12-(((5-fluoro-2,3-dihydrobenzofuran-4-yl)methyl)amino)-4-(2,2,2-trifluoroethyl)-4,5-dihydro-3H-2,4,6,11,12a-pentaazabenzo[4,5]cycloocta [1,2,3-cd]inden-3-one], where the note is “IC50 class, Table 4B”, the IC50 was below 10 nM.

Turning to `Cc1cccc(F)c1CNc1ncc2c3c(ncn13)COCc1ncccc1-2` [Compound 1, N-(2-fluoro-6-methylbenzyl)-3H,5H-4-oxa-2,6,11, 12a-tetraazabenzo[4,5]cycloocta[1,2,3-cd]inden-1 2-amine], the IC50 (Table 4A) is above 10 nM.

For `CC(C)(O)CN1Cc2nc(C(F)(F)F)ccc2-c2cnc(NCc3c(F)ccc4c3CCO4)n3cnc(c23)C1=O` [Compound 58, 12-(((5-fluoro-2,3-dihydrobenzofuran-4-yl)methyl)amino)-4-(2-hydroxy-2-methylpropyl)-7-(trifluoro-methyl)-4,5-dihydro-3H-2,4,6,11,12a-pentaazabenzo [4,5]cycloocta[1,2,3-cd]inden-3-one], the IC50 (Table 4A) came out at 2.74 nM.

For the molecule `CN1CCC(N2Cc3cc(C(F)(F)F)ccc3-c3cnc(NCc4c(F)ccc5c4CCO5)n4cnc(c34)C2=O)CC1` [Compound 74, 12-(((5-fluoro-2,3-dihydrobenzofuran-4-yl)methyl)amino)-4-(1-methylpiperidin-4-yl)-7-(trifluoro-methyl)-4,5-dihydro-3H-2,4,11,12a-tetraazabenzo [4,5]cycloocta[1,2,3-cd]inden-3-one], the IC50 (Table 4A) is 1.67 nM.

As to `Cc1nc2c(s1)-c1cnc(NCc3c(F)ccc4c3CCO4)n3cnc(c13)C(=O)N(C1CC1)C2` [Compound 86, 4-cyclopropyl-11-(((5-fluoro-2,3-dihydrobenzofuran-4-yl)methyl)amino)-7-methyl-4,5-dihydro-3H-8-thia-2,4,6,10,11a-pentaazacyclopenta[4,5] cycloocta[1,2,3-cd]inden-3-one], where the note is “Table 4A”, the IC50 worked out at 2.56 nM.

Take `O=C1c2ncn3c(NCc4c(F)ccc5c4CCO5)ncc(c23)-c2ccc(C(F)(F)F)nc2CN1CC1CCOCC1` [Compound 46, 12-(((5-fluoro-2,3-dihydrobenzofuran-4-yl)methyl)amino)-4-((tetrahydro-2H-pyran-4-yl)methyl)-7-(trifluoromethyl)-4,5-dihydro-3H-2,4,6,11, 12a-pentaazabenzo[4,5]cycloocta[1,2,3-cd]inden-3-one]: the IC50 (Table 4A) came to 1.07 nM.

On to `Cc1ccc2c(n1)CN(C(C)C)C(=O)c1ncn3c(NCc4c(F)ccc5c4CCO5)ncc-2c13` [E 1, 12-(((5-fluoro-2,3-dihydrobenzofuran-4-yl)methyl)amino)-4-isopropyl-7-methyl-4,5-dihydro-3H-2,4,6,11,12a-pentaazabenzo[4,5]cycloocta[1,2,3-cd] inden-3-one], for which, for the setting “IC50 class, Table 4B”, the IC50 was below 10 nM.

With `O=C1NCc2cc(C(F)(F)F)ncc2-c2cnc(NCc3c(F)ccc4c3CCO4)n3cnc1c23` [Compound 22, 12-(((5-fluoro-2,3-dihydrobenzofuran-4-yl)methyl)amino)-7-(trifluoromethyl)-4,5-dihydro-3H-2,4,8, 11,12a-pentaazabenzo[4,5]cycloocta[1,2,3-cd] inden-3-one], the IC50 (Table 4A) is 0.67 nM.

For `CC(C)(O)CN1Cc2cc(C(F)(F)F)ncc2-c2cnc(NCc3c(F)ccc4c3CCO4)n3cnc(c23)C1=O` [Compound 48, 12-(((5-fluoro-2,3-dihydrobenzofuran-4-yl)methyl)amino)-4-(2-hydroxy-2-methylpropyl)-7-(trifluoro-methyl)-4,5-dihydro-3H-2,4,8,11,12a-pentaaza-benzo[4,5]cycloocta[1,2,3-cd]inden-3-one], the IC50 (Table 4A) was 1.65 nM.

In the case of `O=C1c2ncn3c(NCc4c(F)ccc5c4CCO5)ncc(c23)-c2cnc(C(F)(F)F)cc2CN1CC1CCOCC1` [Compound 45, 12-(((5-fluoro-2,3-dihydrobenzofuran-4-yl)methyl)amino)-4-((tetrahydro-2H-pyran-4-yl)methyl)-7-(trifluoromethyl)-4,5-dihydro-3H-2,4,8,11,12a-pentaazabenzo[4,5]cycloocta[1,2,3-cd]inden-3-one], the IC50 (Table 4A) came out at 3.39 nM.

For `Cc1ccc2c(n1)CN(CC1CC(C)(O)C1)C(=O)c1ncn3c(NCc4c(F)ccc5c4CCO5)ncc-2c13` (centres unmarked) [Compound 50, 12-(((5-fluoro-2,3-dihydrobenzofuran-4-yl)methyl)amino)-4-((3-hydroxy-3-methylcyclobutyl)methyl)-7-methyl-4,5-dihydro-3H-2,4,6,11,12a-pentaaza benzo[4,5]cycloocta[1,2,3-cd]inden-3-one], the IC50 (Table 4A) turned out to be 1.16 nM.

For `O=C1OCc2cc(OC(F)(F)F)ccc2-c2cnc(NCc3c(F)ccc4c3CCO4)n3cnc1c23` [Compound 31, 12-(((5-fluoro-2,3-dihydrobenzofuran-4-yl)methyl)amino)-7-(trifluoromethoxy)-3H,5H-4-oxa-2,11, 12a-triazabenzo[4,5]cycloocta[1,2,3-cd]inden-3-one], under “Table 4A”, the IC50 was determined as 0.604 nM.

Regarding `O=C1c2ncn3c(NCc4c(F)ccc5c4CCO5)ncc(c23)-c2ccc(C(F)(F)F)cc2CN1CC1COCCO1` (centres unmarked) [Compound 68, 4-((1,4-dioxan-2-yl)methyl)-12-(((5-fluoro-2,3-dihydrobenzofuran-4-yl)methyl)amino)-7-(trifluoro-methyl)-4,5-dihydro-3H-2,4,11,12a-tetraazabenzo [4,5]cycloocta[1,2,3-cd]inden-3-one], the IC50 (Table 4A) amounted to 3.86 nM.

(Values after US20240316051A1, “A PHARMACEUTICAL COMBINATION AND USE THEREOF” (Ascentage Pharma (Suzhou) Co., Ltd., priority 2021, published 2024).)
